Drawing on patent US5401736A, “4,5,6,7-tetrahydro-1H-imidazo[4,5-c]pyridine-6-carboxylic acid amide” (Kureha Kagaku Kogyo Kabushiki Kaisha, priority 1992, dated 1995), this text covers inhibition for 19 compounds.

The structures appear in SMILES notation. Like-named read-outs stand apart in the source and are kept apart here.

For assay [1], the target named is T1, angiotensin II receptor type 2 (AT2), bovine cerebellar cortex (Bos taurus, UniProt G5E6F7).
T1 construct: Receptor: bovine cerebellar cortex; from tissue; host or cells: bovine cerebellar cortex
T1 sequence (G5E6F7 1-362): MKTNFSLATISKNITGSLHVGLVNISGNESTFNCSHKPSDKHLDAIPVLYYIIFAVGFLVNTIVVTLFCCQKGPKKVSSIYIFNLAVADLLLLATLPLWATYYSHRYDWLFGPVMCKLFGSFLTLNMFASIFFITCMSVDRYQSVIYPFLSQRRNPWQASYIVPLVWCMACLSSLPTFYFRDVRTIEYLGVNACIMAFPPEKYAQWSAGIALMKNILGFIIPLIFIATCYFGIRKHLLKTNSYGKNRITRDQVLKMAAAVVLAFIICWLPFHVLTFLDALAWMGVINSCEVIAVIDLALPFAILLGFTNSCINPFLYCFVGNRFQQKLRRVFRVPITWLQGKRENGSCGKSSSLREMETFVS
Briefly: Receptor binding test, AT2 (tracer 125I-Tyr4-angiotensin II, displacer angiotensin II (human)). The conditions noted are these: 1 h, read-out: Binding inhibition ratio (%) of the test compounds at 1 μM, AT2. Here is the method: (§1) Determination of total binding in the presence of each drug to be tested was made in the following way. A test drug of a predetermined concentration (0.025 ml; dissolved in dimethyl sulfoxide, then diluted two-fold with a buffer attached to the Drug Discovery System and used for assay), a tracer (0.025 ml), and a receptor (0.2 ml) were added to make a total volume of 0.25 ml. After incubation (at room temperature for 3 hours for the angiotensin II receptor type 1 (AT1) and at 37° C. for one hour for the type 2 (AT2)), the reaction mixture was subjected to suction filtration (using GF/C filter paper for AT1 and GF/B filter paper for AT2). The filter paper (tracer-receptor complex) after suction filtration was measured by a y-well counter (ARC-500, Aloka). The non-specific binding was determined by the similar operation by using a large excess of displacer. The specific binding at the predetermined concentration of the test drug was calculated by deducting the non-specific binding from the total binding.

The target of assay [2] is T2, angiotensin II receptor type 1 (AT1), suprarenal gland of rabbit (Oryctolagus cuniculus, UniProt P34976).
T2 construct: Receptor: suprarenal gland of rabbit; from tissue; host or cells: suprarenal gland (adrenal) of rabbit
T2 sequence (P34976 1-359): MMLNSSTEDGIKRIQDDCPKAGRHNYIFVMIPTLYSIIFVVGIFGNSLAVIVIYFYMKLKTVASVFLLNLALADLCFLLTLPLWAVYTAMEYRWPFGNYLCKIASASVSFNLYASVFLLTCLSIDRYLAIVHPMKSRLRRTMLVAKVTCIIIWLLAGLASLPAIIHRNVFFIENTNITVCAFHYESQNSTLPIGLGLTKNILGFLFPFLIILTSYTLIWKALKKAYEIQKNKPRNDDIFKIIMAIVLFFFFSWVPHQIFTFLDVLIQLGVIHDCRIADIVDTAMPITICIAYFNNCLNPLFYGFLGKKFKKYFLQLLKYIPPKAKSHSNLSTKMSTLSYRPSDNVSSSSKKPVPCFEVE
The experiment in a line: Receptor binding test, AT1 (tracer 3H-angiotensin II, displacer DuP753). The conditions noted are these: room temperature, read-out: Binding inhibition ratio (%) of the test compounds at 1 μM, AT1. Here is the method:
as §1, with “binding. The ratio (%) at which the test drugs inhibit binding between radioactive ligand and receptor was determined for both AT1 and AT2 by using the test drugs of the predetermined concentration and a control drug. | *Receptor: suprarenal gland of rabbit Tracer: ^3 Hangiotensin II | (displacer: […])” for “binding.”

[3] abbreviates: 1 μM, receptor: bovine cerebellar cortex, 37° C., one hour.

Take `CN(C)C(=O)[C@@H]1Cc2c(ncn2Cc2ccc(NC(=O)c3ccccc3C(=O)O)cc2)CN1C(=O)C(c1ccccc1)c1ccccc1` [Compound I-1]: the inhibition at 1 µM was 100% in assay [1] (setting [3]) and 0% in assay [2].
`Cc1cc(Cn2cnc3c2C[C@@H](C(=O)N(C)C)N(C(=O)C(c2ccccc2)c2ccccc2)C3)ccc1NC(=O)c1ccccc1C(=O)O` [Compound I-2, (S)-1-(4-(2-carboxybenzoylamino)-3-methylphenyl)methyl-N,N-dimethyl-5-diphenylacetyl-4,5,6,7-tetrahydro-1H-imidazo[4,5-c]pyridine-6-carboxamide]: the inhibition at 1 µM in assay [1] (setting [3]) came out at 100%; in assay [2], 0%.
Taken in the same sequence, the figures for `Cc1cc(Cn2cnc3c2C[C@@H](C(=O)N2CCOCC2)N(C(=O)C(c2ccccc2)c2ccccc2)C3)ccc1NC(=O)c1ccccc1C(=O)O` [Compound I-7] were 100% and 0%.
For the compound `CCCCc1nc2c(n1Cc1ccc(NC(=O)c3ccccc3C(=O)O)c(C)c1)C[C@@H](C(=O)N(C)C)N(C(=O)C(c1ccccc1)c1ccccc1)C2` [Compound I-12], the inhibition at 1 µM stood at 0% in assay [1] (setting [3]) and 100% in assay [2].
In the case of `CCCCc1nc2c(n1Cc1ccc(-c3ccccc3C(=O)O)cc1)C[C@@H](C(=O)N(C)C)N(C(=O)C(c1ccccc1)c1ccccc1)C2` [Compound I-17], the inhibition at 1 µM amounted to 0% in assay [1] (setting [3]) and 100% in assay [2].
For `CCCCc1nc2c(n1Cc1ccc(-c3ccccc3-c3nn[nH]n3)c(C)c1)C[C@@H](C(=O)N(C)C)N(C(=O)C(c1ccccc1)c1ccccc1)C2` [Compound I-19] the same measures were 0% and 100%.
For `O=C(O)c1ccc(Cn2cnc3c2C[C@@H](C(=O)N2CCOCC2)N(C(=O)C(c2ccccc2)c2ccccc2)C3)cc1` [Compound I-21] the same measures were 100% and 0%.
Taken in the same sequence, the figures for `O=C([C@@H]1Cc2c(ncn2Cc2ccc(-c3ccccc3-c3nnn[nH]3)cc2)CN1C(=O)C(c1ccccc1)c1ccccc1)N1CCOCC1` [Compound I-24, 4-[[(S)-5-diphenylacetyl-1-[(2'-(1H-tetrazol-5-yl)biphenyl-4-yl)methyl]-4,5,6,7-tetrahydro-1H-imidazo[4,5-c]pyridin-6-yl]carbonyl]morpholine] were 100% and 0%.
For the compound `CCCCc1nc2c(n1Cc1ccc(NC(=O)c3ccccc3C(=O)O)c(C)c1)C[C@@H](C(=O)N1CCOCC1)N(C(=O)C(c1ccccc1)c1ccccc1)C2` [Compound I-30], the values for the inhibition at 1 µM in assay [1] (setting [3]) and in assay [2] were 0% and 100%, respectively.
For the compound `CCCCc1nc2c(n1Cc1ccc(-c3ccccc3-c3nn[nH]n3)cc1)C[C@@H](C(=O)N1CCOCC1)N(C(=O)C(c1ccccc1)c1ccccc1)C2` [Compound I-31], the values for the inhibition at 1 µM in assay [1] (setting [3]) and in assay [2] were 0% and 100%, respectively.
Regarding `CCCCc1nc2c(n1Cc1ccc(-c3ccccc3-c3nn[nH]n3)cc1)C[C@@H](C(=O)N1CCSCC1)N(C(=O)C(c1ccccc1)c1ccccc1)C2` [Compound I-32], the inhibition at 1 µM amounted to 0% in assay [1] (setting [3]) and 100% in assay [2].
In the case of `CCCCc1nc2c(n1Cc1ccc(-c3ccccc3-c3nn[nH]n3)cc1)C[C@@H](C(=O)N(CC)CC)N(C(=O)C(c1ccccc1)c1ccccc1)C2` [Compound I-40], the inhibition at 1 µM turned out to be 0% in assay [1] (setting [3]) and 100% in assay [2].
On to `CCCCc1nc(Cl)c(CO)n1Cc1ccc(-c2ccccc2-c2nn[nH]n2)cc1` [DuP753, reference compound], for which the inhibition at 1 µM in assay [1] was determined as 0%; in assay [2] it was 70%.
Consider `Cc1cc(Cn2cnc3c2CC(C(=O)O)N(C(=O)C(c2ccccc2)c2ccccc2)C3)ccc1N` (centres unmarked) [PD123177, reference compound], for which the inhibition at 1 µM in assay [1] (setting [3]) came to 65%; in assay [2], 0%.
For `Cc1cc(Cn2cnc3c2CC(C(=O)O)N(C(=O)C(c2ccccc2)c2ccccc2)C3)ccc1NC(=O)c1ccccc1C(=O)O` (centres unmarked) [Reference compound 1, reference compound] the same measures were 71% and 0%.
Taken in the same sequence, the figures for `COC(=O)C1Cc2c(ncn2Cc2ccc(NC(=O)c3ccccc3C(=O)O)c(C)c2)CN1C(=O)C(c1ccccc1)c1ccccc1` (centres unmarked) [Reference compound 2, reference compound] were 72% and 0%.
Taken in the same sequence, the figures for `CCCc1nc2c(n1Cc1ccc(-c3ccccc3-c3nn[nH]n3)c(C)c1)CC(C(=O)O)N(C(=O)C(c1ccccc1)c1ccccc1)C2` (centres unmarked) [Reference compound 26, reference compound] were 0% and 78%.
`O=C(O)C1Cc2c(ncn2Cc2ccc(-c3ccccc3-c3nn[nH]n3)cc2)CN1C(=O)C(c1ccccc1)c1ccccc1` (centres unmarked) [Reference compound 27, reference compound]: the figures for the inhibition at 1 µM in assay [1] (setting [3]) and in assay [2] were 76% and 0%, respectively.
Taken in the same sequence, the figures for `CCCc1nc2c(n1Cc1ccc(-c3ccccc3-c3nn[nH]n3)cc1)CC(C(=O)O)N(C(=O)C(c1ccccc1)c1ccccc1)C2` (centres unmarked) [Reference compound 50, reference compound] were 0% and 75%.
